Experimental data: paper PMC5131319, “Occurrence, temporal trends, and half-lives of perfluoroalkyl acids (PFAAs) in occupational workers in China” (Scientific Reports, 2016)
Several values for one entry are separate records, joined by “and”; a condition that tells them apart may be missing. Identical values can stand only once.

Tests used:
[1] = PFAA concentration in morning urine of occupational workers (HPLC-ESI/MS/MS); format: in vivo, human; settings: for Urine PFOA concentration / Urine PFOS concentration: individual workers
Method: The selected fluorochemical plant (Henxin Chemical Plant) in this study is one of the largest producers of PFOS-related chemicals in China and is located in Yingcheng, Hubei province. Perfluoroalkyl sulfonic acids (PFSAs) and perfluorotertiary amines are synthesized through an electro-chemical fluorination (ECF) process. We collected paired serum and urine samples from the occupational workers in the plant for five consecutive years, and the sampling activities were carried out in Nov. 2008, Nov. 2009, Nov. 2010, Dec. 2011, and Dec 2012, respectively. The Medical Research Ethics Committee, School of Medicine, Jianghan University, approved the ethics of this study, and all methods were performed in accordance with the relevant guidelines and regulations, moreover, all volunteers gave written informed consent. Demographic information of the donors, including gender, age, length of service, and work assignment, was collected with a questionnaire (Table S1). The sampled population included a total of 302 occupational workers, of which there were 89 female and 213 male participants. In total, 302 serum and 274 urine samples were collected.
The participants were told not to eat breakfast before the sampling, and morning urine samples and blood samples were collected. Serum was separated from the blood by centrifugation at 1100 × g at 4 °C for 10 min and then placed on ice. Serum samples were then transferred to our laboratory on the same day and stored in polypropylene containers at −20 °C until analysis.
All pre-treatment methods and instrument analysis of PFAAs in serum and urine samples are based on previous studies with minor modifications (see Supplementary Information)[3][31]. Based on the PFAA profiles in environmental matrices around the same plant in our previous study, only 3 main PFAAs, PFHxS, PFOA, and PFOS, were analyzed in the obtained serum and urine samples. Instrumental analysis of the PFAAs was performed by a HPLC-ESI/MS/MS system (HPLC: Waters 2695, MS: Waters Quattro Premier XE). The limits of detection (LODs) of PFHxS, PFOA, and PFOS were 0.020, 0.063, and 0.018 ng mL^−1 for serum samples and 0.008, 0.025, and 0.007 ng mL^−1 for urine samples, respectively. A procedural blank was performed for every batch of seven samples, and all of the blank levels were below the LODs. […] Details of quality assurance and quality control of the chemical analysis can be found in the Supplementary Information.
Urine samples were pretreated by solid phase extraction. Briefly, 1 mL of urine spiked with 5 ng of internal standard was added to a 15 - mL PP tube and diluted with 13 mL water. The solid phase extraction procedure was then performed following the previously described serum extraction procedure.

[2] = cited from earlier work; for Clrenal, median: fishery employees from Tangxun Lake
[3] = Fabric finishing agent department, N 8

O=C(O)C(F)(F)C(F)(F)C(F)(F)C(F)(F)C(F)(F)C(F)(F)C(F)(F)F [PFOA, perfluorooctanoic acid]
Urine concentration, mean ([1]; All workers, N 274): 4.3 ng/mL | Urine concentration, median ([1]; All workers, N 274): 1.9 ng/mL | Urine concentration, mean ([1]; Electrolytic department, N 67): 6.7 ng/mL | Urine concentration, median ([1]; Electrolytic department, N 67): 3.5 ng/mL | Urine concentration, mean [1, 3]: 5.1 ng/mL | Urine concentration, median [1, 3]: 1.5 ng/mL | Urine concentration, range [1, 3]: 1.2 to 22.2 ng/mL | Urine concentration, mean ([1]; Management office, N 76): 1.5 ng/mL | Urine concentration, median ([1]; Management office, N 76): 0.86 ng/mL | Urine concentration, mean ([1]; Research building, N 25): 1.8 ng/mL | Urine concentration, median ([1]; Research building, N 25): 0.92 ng/mL | Urine concentration, mean ([1]; Sulfonation department, N 98): 4.8 ng/mL | Urine concentration, median ([1]; Sulfonation department, N 98): 2.7 ng/mL | Urine PFOA concentration ([1]; sampling year 2008): 5.18 ng/mL and 0.0901 ng/mL and 0.0937 ng/mL and 0.178 ng/mL and 2.21 ng/mL and 7.6 ng/mL and 0.0489 ng/mL and 3.75 ng/mL and 2.54 ng/mL and 2.88 ng/mL and 0.67 ng/mL and 2.31 ng/mL and 1.03 ng/mL and 1.26 ng/mL and 0.0447 ng/mL and 0.688 ng/mL and 2.24 ng/mL and 2 ng/mL and 1.47 ng/mL and 0.668 ng/mL and 0.709 ng/mL and 0.448 ng/mL and 4.18 ng/mL and 5 ng/mL and 8.09 ng/mL and 7.15 ng/mL and 6.68 ng/mL | Urine PFOA concentration ([1]; sampling year 2009): 3.45 ng/mL and 8.82 ng/mL and 14.8 ng/mL and 1.48 ng/mL and 15.8 ng/mL and 19.6 ng/mL and 6.9 ng/mL and 5.24 ng/mL and 1.14 ng/mL and 1.2 ng/mL and 1.69 ng/mL and 0.889 ng/mL and 4 ng/mL and 0.515 ng/mL and 2.24 ng/mL and 5.25 ng/mL and 1.05 ng/mL and 0.776 ng/mL and 0.537 ng/mL and 12.4 ng/mL and 4.34 ng/mL and 1.12 ng/mL and 15.3 ng/mL and 19.1 ng/mL and 10 ng/mL and 4.81 ng/mL

O=S(=O)(O)C(F)(F)C(F)(F)C(F)(F)C(F)(F)C(F)(F)C(F)(F)C(F)(F)C(F)(F)F [PFOS, perfluorooctanesulfonate]
Urine concentration, mean ([1]; All workers, N 274): 4.4 ng/mL | Urine concentration, median ([1]; All workers, N 274): 1.2 ng/mL | Urine concentration, mean ([1]; Electrolytic department, N 67): 1.8 ng/mL | Urine concentration, median ([1]; Electrolytic department, N 67): 0.93 ng/mL | Urine concentration, mean [1, 3]: 0.39 ng/mL | Urine concentration, median [1, 3]: LOD | Urine concentration, mean ([1]; Management office, N 76): 1.6 ng/mL | Urine concentration, median ([1]; Management office, N 76): 0.49 ng/mL | Urine concentration, mean ([1]; Research building, N 25): 1.4 ng/mL | Urine concentration, median ([1]; Research building, N 25): 1.1 ng/mL | Urine concentration, mean ([1]; Sulfonation department, N 98): 8.8 ng/mL | Urine concentration, median ([1]; Sulfonation department, N 98): 3.0 ng/mL | Urine PFOS concentration ([1]; sampling year 2008): 0.918 ng/mL and 7.8 ng/mL and 7.66 ng/mL and 0.697 ng/mL and 0.425 ng/mL and 17.2 ng/mL and 3.94 ng/mL and 2.12 ng/mL and 0.736 ng/mL and 0.943 ng/mL and 2.18 ng/mL and 0.818 ng/mL and 0.217 ng/mL and 0.819 ng/mL and 0.291 ng/mL and 4.7 ng/mL and 7.69 ng/mL and 3.07 ng/mL and 0.465 ng/mL and 22.5 ng/mL and 3.09 ng/mL | Urine PFOS concentration ([1]; sampling year 2009): 0.361 ng/mL and 7.85 ng/mL and 2.17 ng/mL and 1.4 ng/mL and 0.831 ng/mL and 1.51 ng/mL and 0.198 ng/mL and 2.73 ng/mL and 0.47 ng/mL and 0.288 ng/mL and 0.078 ng/mL and 0.206 ng/mL and 0.094 ng/mL and 0.171 ng/mL and 0.84 ng/mL and 1.33 ng/mL and 0.14 ng/mL and 1.86 ng/mL and 2.58 ng/mL and 1.8 ng/mL | Urine PFOS concentration ([1]; sampling year 2010): 1.14 ng/mL and 0.258 ng/mL and 0.177 ng/mL and 64.2 ng/mL and 0.884 ng/mL and 0.714 ng/mL and 0.912 ng/mL and 0.855 ng/mL and 2.44 ng/mL and 0.39 ng/mL and 3.98 ng/mL and 0.314 ng/mL and 0.409 ng/mL and 1.98 ng/mL and 0.139 ng/mL and 14 ng/mL and 14.2 ng/mL and 7.14 ng/mL and 3.93 ng/mL | Urine PFOS concentration ([1]; sampling year 2011): 0.14 ng/mL and 0.17 ng/mL and 0.47 ng/mL and 49.90 ng/mL and 2.18 ng/mL and 0.43 ng/mL and 0.54 ng/mL and 5.08 ng/mL and 0.52 ng/mL and 0.29 ng/mL and 0.75 ng/mL and 0.51 ng/mL and 0.04 ng/mL and 0.70 ng/mL and 0.74 ng/mL and 1.78 ng/mL and 14.70 ng/mL and 7.74 ng/mL and 4.91 ng/mL and 2.24 ng/mL | Urine PFOS concentration ([1]; sampling year 2012): 0.7 ng/mL and 26.46 ng/mL and 0.46 ng/mL and 1.62 ng/mL and 0.22 ng/mL and 0.44 ng/mL and 0.58 ng/mL and 0.18 ng/mL and 0.5 ng/mL and 0.78 ng/mL and 0.1 ng/mL and 1.64 ng/mL and 0.06 ng/mL and 0.26 ng/mL and 0.12 ng/mL and 0.42 ng/mL and 7.26 ng/mL and 7.8 ng/mL and 9.72 ng/mL and 5.64 ng/mL | Clrenal values obtained from different sources, range [2]: 0.01 to 0.1 mL/day/kg | Clrenal, median [2]: 0.010 mL/day/kg

O=S(=O)(O)C(F)(F)C(F)(F)C(F)(F)C(F)(F)C(F)(F)C(F)(F)F [PFHxS, perfluorohexane sulfonate]
Urine concentration, mean ([1]; All workers, N 274): 3.9 ng/mL | Urine concentration, median ([1]; All workers, N 274): 1.7 ng/mL | Urine concentration, mean ([1]; Electrolytic department, N 67): 2.3 ng/mL | Urine concentration, median ([1]; Electrolytic department, N 67): 1.3 ng/mL | Urine concentration, mean [1, 3]: 3.5 ng/mL | Urine concentration, median [1, 3]: 2.4 ng/mL | Urine concentration, range [1, 3]: 0.79 to 7.1 ng/mL | Urine concentration, mean ([1]; Management office, N 76): 0.93 ng/mL | Urine concentration, median ([1]; Management office, N 76): 0.37 ng/mL | Urine concentration, mean ([1]; Research building, N 25): 1.9 ng/mL | Urine concentration, median ([1]; Research building, N 25): 0.97 ng/mL | Urine concentration, mean ([1]; Sulfonation department, N 98): 7.1 ng/mL | Urine concentration, median ([1]; Sulfonation department, N 98): 3.7 ng/mL | Clrenal, median [2]: 0.012 mL/day/kg
